Patent US20230123334A1, “AMINO LIPID COMPOUND, PREPARATION METHOD THEREFOR, AND APPLICATION THEREOF” (SHENZHEN SHENXIN BIOTECHNOLOGY CO., LTD., priority 2020, published 2023)

System: HEK293 cells
Experiment: Preliminary screening as mRNA vectors, EGFP mRNA transfection of HEK293 cells
Type: cell-based
Details: EGFP mRNA 50 ng per well, 96-well plates; percentage of GFP fluorescent cells relative to total number of cells (Hoechst)
Method in brief: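 Screening format: EGFP mRNA transfection (50 ng/well) into HEK293 in 10% FBS-supplemented DMEM. Percent green fluorescent cells, normalised to Hoechst nuclear count, gave the value; Lipofectamine2000 was the reference transfectant.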

## CCCCCCCCCCCCCCCCSc1nc(NCCCCCCCCCCC)nc(NCCN2CCOCC2)n1 [Compound D2S16N11]
  Absolute mRNA transfection efficiency in HEK293 cells: 4.1%

## CCCCCCCCCCCCCCCCSc1nc(NCCCCCCCCCCCC)nc(NCCN2CCOCC2)n1 [Compound D2S16N12]
  Absolute mRNA transfection efficiency in HEK293 cells: 1.2%

## CCCCCCCCCCCCCCCCSc1nc(NCCCCCCCCCCCCC)nc(NCCN2CCOCC2)n1 [Compound D2S16N13]
  Absolute mRNA transfection efficiency in HEK293 cells: 0.0%

## CCCCCCCCCCCCCCCCSc1nc(NCCCCCCCCCCCCCCC)nc(NCCN2CCOCC2)n1 [Compound D2S16N15]
  Absolute mRNA transfection efficiency in HEK293 cells: 0.2%

## CCCCCCCCCCCCCCCCNc1nc(NCCN2CCOCC2)nc(SCCCCCCCCCCCCCCCC)n1 [Compound D2S16N16]
  Absolute mRNA transfection efficiency in HEK293 cells: 0.0%

## CCCCCCCCCCCCCCCCCCNc1nc(NCCN2CCOCC2)nc(SCCCCCCCCCCCCCCCC)n1 [Compound D2S16N18]
  Absolute mRNA transfection efficiency in HEK293 cells: 0.0%

## CCCCCCCCCCCCCCCCCCSc1nc(NCCCCCC)nc(NCCN2CCOCC2)n1 [Compound D2S18N6]
  Absolute mRNA transfection efficiency in HEK293 cells: 0.4%

## CCCCCCCCCCCCCCCCCCSc1nc(NCCCCCCC)nc(NCCN2CCOCC2)n1 [Compound D2S18N7]
  Absolute mRNA transfection efficiency in HEK293 cells: 1.0%

## CCCCCCCCCCCCCCCCCCSc1nc(NCCCCCCCC)nc(NCCN2CCOCC2)n1 [Compound D2S18N8]
  Absolute mRNA transfection efficiency in HEK293 cells: 3.1%

## CCCCCCCCCCCCCCCCCCSc1nc(NCCCCCCCCC)nc(NCCN2CCOCC2)n1 [Compound D2S18N9]
  Absolute mRNA transfection efficiency in HEK293 cells: 0.4%

## CCCCCCCCCCCCCCCCCCSc1nc(NCCCCCCCCCCC)nc(NCCN2CCOCC2)n1 [Compound D2S18N11]
  Absolute mRNA transfection efficiency in HEK293 cells: 0.5%

## CCCCCCCCCCCCCCCCCCSc1nc(NCCCCCCCCCCCC)nc(NCCN2CCOCC2)n1 [Compound D2S18N12]
  Absolute mRNA transfection efficiency in HEK293 cells: 2.3%

## CCCCCCCCCCCCCCCCCCSc1nc(NCCCCCCCCCCCCC)nc(NCCN2CCOCC2)n1 [Compound D2S18N13]
  Absolute mRNA transfection efficiency in HEK293 cells: 0.0%

## CCCCCCCCCCCCCCCCCCSc1nc(NCCCCCCCCCCCCCCC)nc(NCCN2CCOCC2)n1 [Compound D2S18N15]
  Absolute mRNA transfection efficiency in HEK293 cells: 0.0%

## CCCCCCCCCCCCCCCCCCSc1nc(NCCCCCCCCCCCCCCCC)nc(NCCN2CCOCC2)n1 [Compound D2S18N16]
  Absolute mRNA transfection efficiency in HEK293 cells: 0.0%

## CCCCCCCCCCCCCCCCCCNc1nc(NCCN2CCOCC2)nc(SCCCCCCCCCCCCCCCCCC)n1 [Compound D2S18N18]
  Absolute mRNA transfection efficiency in HEK293 cells: 0.0%

## CCCCCCNc1nc(NCCN2CCCC2)nc(SCCCCCC)n1 [Compound D3S6N6]
  Absolute mRNA transfection efficiency in HEK293 cells: 0.1%

## CCCCCCCNc1nc(NCCN2CCCC2)nc(SCCCCCC)n1 [Compound D3S6N7]
  Absolute mRNA transfection efficiency in HEK293 cells: 0.2%

## CCCCCCCCNc1nc(NCCN2CCCC2)nc(SCCCCCC)n1 [Compound D3S6N8]
  Absolute mRNA transfection efficiency in HEK293 cells: 0.0%

## CCCCCCCCCNc1nc(NCCN2CCCC2)nc(SCCCCCC)n1 [Compound D3S6N9]
  Absolute mRNA transfection efficiency in HEK293 cells: 0.3%

## CCCCCCCCCCCNc1nc(NCCN2CCCC2)nc(SCCCCCC)n1 [Compound D3S6N11]
  Absolute mRNA transfection efficiency in HEK293 cells: 0.7%

## CCCCCCCCCCCCNc1nc(NCCN2CCCC2)nc(SCCCCCC)n1 [Compound D3S6N12]
  Absolute mRNA transfection efficiency in HEK293 cells: 4.1%

## CCCCCCCCCCCCCNc1nc(NCCN2CCCC2)nc(SCCCCCC)n1 [Compound D3S6N13]
  Absolute mRNA transfection efficiency in HEK293 cells: 7.7%

## CCCCCCCCCCCCCCCNc1nc(NCCN2CCCC2)nc(SCCCCCC)n1 [Compound D3S6N15]
  Absolute mRNA transfection efficiency in HEK293 cells: 14.4%

## CCCCCCCCCCCCCCCCNc1nc(NCCN2CCCC2)nc(SCCCCCC)n1 [Compound D3S6N16]
  Absolute mRNA transfection efficiency in HEK293 cells: 37.3%

## CCCCCCCCCCCCCCCCCCNc1nc(NCCN2CCCC2)nc(SCCCCCC)n1 [Compound D3S6N18]
  Absolute mRNA transfection efficiency in HEK293 cells: 32.5%

## CCCCCCSc1nc(NCCN2CCCC2)nc(SCCCCCC)n1 [Compound D3S6S6]
  Absolute mRNA transfection efficiency in HEK293 cells: 1.9%

## CCCCCCCSc1nc(NCCN2CCCC2)nc(SCCCCCC)n1 [Compound D3S6S7]
  Absolute mRNA transfection efficiency in HEK293 cells: 1.3%

## CCCCCCCCSc1nc(NCCN2CCCC2)nc(SCCCCCC)n1 [Compound D3S6S8]
  Absolute mRNA transfection efficiency in HEK293 cells: 1.6%

## CCCCCCCCCSc1nc(NCCN2CCCC2)nc(SCCCCCC)n1 [Compound D3S6S9]
  Absolute mRNA transfection efficiency in HEK293 cells: 2.6%

## CCCCCCCCCCSc1nc(NCCN2CCCC2)nc(SCCCCCC)n1 [Compound D3S6S10]
  Absolute mRNA transfection efficiency in HEK293 cells: 2.5%

## CCCCCCCCCCCSc1nc(NCCN2CCCC2)nc(SCCCCCC)n1 [Compound D3S6S11]
  Absolute mRNA transfection efficiency in HEK293 cells: 0.7%

## CCCCCCCCCCCCSc1nc(NCCN2CCCC2)nc(SCCCCCC)n1 [Compound D3S6S12]
  Absolute mRNA transfection efficiency in HEK293 cells: 1.0%

## CCCCCCCCCCCCCCSc1nc(NCCN2CCCC2)nc(SCCCCCC)n1 [Compound D3S6S14]
  Absolute mRNA transfection efficiency in HEK293 cells: 0.3%

## CCCCCCCCCCCCCCCSc1nc(NCCN2CCCC2)nc(SCCCCCC)n1 [Compound D3S6S15]
  Absolute mRNA transfection efficiency in HEK293 cells: 12.0%

## CCCCCCCCCCCCCCCCSc1nc(NCCN2CCCC2)nc(SCCCCCC)n1 [Compound D3S6S16]
  Absolute mRNA transfection efficiency in HEK293 cells: 16.9%

## CCCCCCCCCCCCCCCCCCSc1nc(NCCN2CCCC2)nc(SCCCCCC)n1 [Compound D3S6S18]
  Absolute mRNA transfection efficiency in HEK293 cells: 36.8%

## CCCCCCCSc1nc(NCCCCCC)nc(NCCN2CCCC2)n1 [Compound D3S7N6]
  Absolute mRNA transfection efficiency in HEK293 cells: 5.8%

## CCCCCCCNc1nc(NCCN2CCCC2)nc(SCCCCCCC)n1 [Compound D3S7N7]
  Absolute mRNA transfection efficiency in HEK293 cells: 6.6%

## CCCCCCCCNc1nc(NCCN2CCCC2)nc(SCCCCCCC)n1 [Compound D3S7N8]
  Absolute mRNA transfection efficiency in HEK293 cells: 1.3%

## CCCCCCCCCNc1nc(NCCN2CCCC2)nc(SCCCCCCC)n1 [Compound D3S7N9]
  Absolute mRNA transfection efficiency in HEK293 cells: 2.8%

## CCCCCCCCCCCNc1nc(NCCN2CCCC2)nc(SCCCCCCC)n1 [Compound D3S7N11]
  Absolute mRNA transfection efficiency in HEK293 cells: 9.6%

## CCCCCCCCCCCCNc1nc(NCCN2CCCC2)nc(SCCCCCCC)n1 [Compound D3S7N12]
  Absolute mRNA transfection efficiency in HEK293 cells: 6.5%

## CCCCCCCCCCCCCNc1nc(NCCN2CCCC2)nc(SCCCCCCC)n1 [Compound D3S7N13]
  Absolute mRNA transfection efficiency in HEK293 cells: 19.1%

## CCCCCCCCCCCCCCCNc1nc(NCCN2CCCC2)nc(SCCCCCCC)n1 [Compound D3S7N15]
  Absolute mRNA transfection efficiency in HEK293 cells: 33.7%

## CCCCCCCCCCCCCCCCNc1nc(NCCN2CCCC2)nc(SCCCCCCC)n1 [Compound D3S7N16]
  Absolute mRNA transfection efficiency in HEK293 cells: 25.0%
